Laboratory results as given in ChEMBL document CHEMBL1201862, “PubChem BioAssay data set” (2004).
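Five concentrations, 48 hours, 96-well plates. GI50 marks 50% less growth.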 Active and inactive are the calls of the source. Cut-off read from the data, not from the text of the source: active = GI50 up to about 1.1 µM and inactive = higher.

Tests used:
Experiment in all cases: NCI-60 cell line screen, 48 h
[1] = tested on: LXFL 529
[2] = tested on: XF498
[3] = tested on: DMS-114
[4] = tested on: RXF 631
[5] = tested on: SNB-78
[6] = tested on: KM-20L2
[7] = tested on: DMS-273
[8] = tested on: HOP-18
[9] = tested on: BT-549

Measured: GI50

CC(=O)O/C=C(/C=C/OC(C)=O)C(C/C=C(\C)C#CC=C(C)C)OC(C)=O (centres undefined)
inactive: [1] 19.3 µM | [2] 37.2 µM | [3] 19 µM | [4] > 100 µM | [5] 29.9 µM | [6] 53.1 µM | [7] 50.8 µM | [8] 33.3 µM

O=C(NCCCOC(=O)CCCCCCCCC(=O)OCCCNC(=O)NC(=O)c1c[nH]c(=O)[nH]c1=O)NC(=O)c1c[nH]c(=O)[nH]c1=O
inactive: [1] > 100 µM | [2] > 100 µM | [4] > 100 µM | [5] > 100 µM | [6] > 100 µM | [7] > 100 µM | [8] 1.49 µM

COC(=O)NNc1c([N+](=O)[O-])cnn(-c2ccccc2)c1=O
inactive: [1] 1.73 µM | [3] 3.37 µM | [4] 2.08 µM | [6] 3.37 µM | [7] 1.98 µM | [9] 1.82 µM | [8] 2.82 µM

CCOC(=O)C1Nc2ccc([N+](=O)[O-])cc2[C@H]2OCC[C@@H]12 (some centres undefined)
inactive: [2] > 100 µM | [3] > 100 µM | [4] > 100 µM | [5] > 100 µM | [6] > 100 µM | [7] > 100 µM | [8] > 100 µM

Cc1c(N(C)C)ccc2c(=O)c3cccc(CC(=O)O)c3oc12
inactive: [3] > 100 µM | [4] > 100 µM | [5] > 100 µM | [6] > 100 µM | [7] > 100 µM | [9] 65.2 µM | [8] > 100 µM

CCOC(=O)C(=C=C=C(c1ccccc1)c1ccccc1)C(=O)OCC
inactive: [1] 16.9 µM | [2] 15.1 µM | [3] 18.5 µM | [4] 24 µM | [5] 16.9 µM | [6] 20.9 µM | [7] 20.3 µM

Brc1nc2c3ccccc3ncn2c1Br
inactive: [1] 29.9 µM | [2] 25.8 µM | [3] 33.4 µM | [4] 39.4 µM | [5] 36.7 µM | [6] 28.4 µM | [7] 30.8 µM | [8] 14.4 µM

CC(=O)O[C@H]1C=CC(=O)C(C)CC1C (some centres undefined)
inactive: [1] > 100 µM | [2] > 100 µM | [3] > 100 µM | [4] > 100 µM | [5] > 100 µM | [6] > 100 µM | [7] > 100 µM

COc1ccccc1CC(C)N (centres undefined)
inactive: [1] > 100 µM | [2] > 100 µM | [3] > 100 µM | [4] > 100 µM | [5] > 100 µM | [6] > 100 µM | [7] > 100 µM | [8] > 100 µM

C/C(=N/NC(=O)CC(=O)N(C(=O)c1ccccc1Cl)c1ccc(C)cc1)c1cc2ccccc2oc1=O
inactive: [1] > 100 µM | [2] > 100 µM | [3] 49.8 µM | [4] > 100 µM | [5] > 100 µM | [6] > 100 µM | [7] > 100 µM | [8] > 100 µM
